Assay results taken from patent US5232923A, “Catechol derivatives and pharmaceutical preparations containing same” (Mitsui Toatsu Chemicals, Incorporated, priority 1988, dated 1993).
Where two headings read alike, the source gives them in different places.

Test system: production and secretion of NGF in mouse L-M cells
Test: Promoting activity for the production and secretion of NGF in mouse L-M cells (ELISA of medium after 24 h)
Format: cell-based
Settings: for fold induction at 200 µM: Mus musculus, 24 h, read-out: NGF Increase Ratio; for NGF Concentration: 24 hours, mean of four determinations
Protocol: Promoting activity for the production and secretion of NGF in mouse L-M cells
The medium was cultured for 3 days at a temperature of 37° C. […] The sample of the derivative tested is contained in the medium at a prescribed concentration as illustrated in the Tables. […] Data are expressed as fold increase in NGF content of the medium over that cultivated in the absence of the derivative to be tested. […] Data are presented as the mean of four determinations. The results are illustrated in Tables 1-5.

[1] = Table 1, L-M cells, sample concentration 0.2 mM, control 0.33
[2] = Table 1, L-M cells, sample concentration 0.2 mM, fold increase over control (1.00)
[3] = Table 2, L-M cells, sample concentration 0.2 mM, fold increase over control (1.00)
[4] = Table 2, L-M cells, sample concentration 0.2 mM, control 0.34

Row | Compound | fold induction at 200 µM | NGF Concentration [1] | fold induction at 200 µM [2] | fold induction at 200 µM [3] | NGF Concentration [4]
1 | NCCc1ccc(O)c(O)c1 [Comparative compound, reference compound] | 3.94 | 1.30 ng/well | – | – | –
2 | CCC(=O)NCCc1ccc(O)c(O)c1 [Compound 2] | – | 3.10 ng/well | 9.39 | – | –
3 | CC(=O)NCc1ccc(O)c(O)c1 [Compound 4] | – | 2.60 ng/well | 7.88 | – | –
4 | CCC(=O)NCc1ccc(O)c(O)c1 [Compound 5] | – | 2.75 ng/well | 8.33 | – | –
5 | CCCC(=O)NCc1ccc(O)c(O)c1 [Compound 6] | – | 2.95 ng/well | 8.94 | – | –
6 | CCC(=O)NCCCc1ccc(O)c(O)c1 [Compound 8] | – | 2.90 ng/well | 8.79 | – | –
7 | CCCC(=O)NCCCc1ccc(O)c(O)c1 [Compound 9] | – | 2.75 ng/well | 8.33 | – | –
8 | CCC(=O)N(C)CCc1ccc(O)c(O)c1 [Compound 11] | – | 3.32 ng/well | 10.1 | – | –
9 | CCC(=O)NCCc1ccc(OC(C)=O)c(OC(C)=O)c1 [Compound 14] | – | 3.49 ng/well | 10.6 | – | –
10 | CC(=O)NCc1ccc(OC(C)=O)c(OC(C)=O)c1 [Compound 16] | – | 2.72 ng/well | 8.24 | – | –
11 | CC(=O)Oc1ccc(CCN(C)C(C)=O)cc1OC(C)=O [Compound 18] | – | 3.95 ng/well | 12 | – | –
12 | CCCNCCc1ccc(O)c(O)c1 [Compound 20] | 11 | 3.62 ng/well | – | – | –
13 | CNCc1ccc(O)c(O)c1 [Compound 22] | – | 2.97 ng/well | 9 | – | –
14 | CCNCc1ccc(O)c(O)c1 [Compound 23] | – | 3.08 ng/well | 9.33 | – | –
15 | CCCNCc1ccc(O)c(O)c1 [Compound 24] | – | 2.94 ng/well | 8.91 | – | –
16 | CCCCNCc1ccc(O)c(O)c1 [Compound 25] | – | 2.91 ng/well | 8.82 | – | –
17 | CCNCCCc1ccc(O)c(O)c1 [Compound 27] | – | 2.89 ng/well | 8.76 | – | –
18 | CCCNCCCc1ccc(O)c(O)c1 [Compound 28] | – | 2.79 ng/well | 8.45 | – | –
19 | CC(=O)Oc1ccc(CCN(C)C)cc1OC(C)=O [Compound 30] | 11.5 | 3.80 ng/well | – | – | –
20 | CCN(C)CCc1ccc(OC(C)=O)c(OC(C)=O)c1 [Compound 31] | 11.4 | 3.76 ng/well | – | – | –
21 | COC(=O)CCc1ccc(O)c(O)c1 [Compound 34] | – | – | – | 5.79 | 1.97 ng/well
22 | CCCOC(=O)CCc1ccc(O)c(O)c1 [Compound 36] | – | – | – | 5.53 | 1.88 ng/well
23 | COC(=O)Cc1ccc(O)c(O)c1 [Compound 38] | – | – | – | 4.79 | 1.63 ng/well
24 | CCCOC(=O)Cc1ccc(O)c(O)c1 [Compound 40] | – | – | – | 5.41 | 1.84 ng/well
25 | CCCCOC(=O)Cc1ccc(O)c(O)c1 [Compound 41] | – | – | – | 5.26 | 1.79 ng/well

Row | Compound | fold induction at 200 µM | NGF Concentration [1] | fold induction at 200 µM [2] | fold induction at 200 µM [3] | NGF Concentration [4]
26 | COC(=O)CCCc1ccc(O)c(O)c1 [Compound 42] | – | – | – | 5.32 | 1.81 ng/well
27 | CCCOC(=O)CCCc1ccc(O)c(O)c1 [Compound 44] | – | – | – | 5.62 | 1.91 ng/well
28 | CCCCOC(=O)CCCc1ccc(O)c(O)c1 [Compound 45] | – | – | – | 5.41 | 1.84 ng/well
29 | COC(=O)CCc1ccc(OC(C)=O)c(OC(C)=O)c1 [Compound 46] | – | – | – | 5.91 | 2.01 ng/well
30 | CCCOC(=O)CCc1ccc(OC(C)=O)c(OC(C)=O)c1 [Compound 48] | – | – | – | 6.26 | 2.13 ng/well
31 | COC(=O)Cc1ccc(OC(C)=O)c(OC(C)=O)c1 [Compound 50] | – | – | – | 5.09 | 1.73 ng/well
32 | CCCOC(=O)Cc1ccc(OC(C)=O)c(OC(C)=O)c1 [Compound 52] | – | – | – | 5.53 | 1.88 ng/well
33 | CCCCOC(=O)Cc1ccc(OC(C)=O)c(OC(C)=O)c1 [Compound 53] | – | – | – | 4.79 | 1.63 ng/well
34 | COC(=O)CCCc1ccc(OC(C)=O)c(OC(C)=O)c1 [Compound 54] | – | – | – | 5.53 | 1.88 ng/well
35 | CCCOC(=O)CCCc1ccc(OC(C)=O)c(OC(C)=O)c1 [Compound 56] | – | – | – | 5.09 | 1.73 ng/well
36 | CCCCOC(=O)CCCc1ccc(OC(C)=O)c(OC(C)=O)c1 [Compound 57] | – | – | – | 5.32 | 1.81 ng/well
37 | CNC(=O)CCc1ccc(O)c(O)c1 [Compound 59, N-Methyl-3,4-dihydroxyphenylpropionamide] | – | – | – | 5.62 | 1.91 ng/well
38 | CCCNC(=O)CCc1ccc(O)c(O)c1 [Compound 61] | – | – | – | 5.91 | 2.01 ng/well
39 | NC(=O)Cc1ccc(O)c(O)c1 [Compound 62] | – | – | – | 4.79 | 1.63 ng/well
40 | CNC(=O)Cc1ccc(O)c(O)c1 [Compound 63] | – | – | – | 5.82 | 1.98 ng/well
41 | CCCNC(=O)Cc1ccc(O)c(O)c1 [Compound 65] | – | – | – | 5.21 | 1.77 ng/well
42 | CCCCNC(=O)Cc1ccc(O)c(O)c1 [Compound 66] | – | – | – | 5.85 | 1.99 ng/well
43 | NC(=O)CCCc1ccc(O)c(O)c1 [Compound 67] | – | – | – | 4.97 | 1.69 ng/well
44 | CNC(=O)CCCc1ccc(O)c(O)c1 [Compound 68] | – | – | – | 5.09 | 1.73 ng/well
45 | CCCNC(=O)CCCc1ccc(O)c(O)c1 [Compound 70] | – | – | – | 5.38 | 1.83 ng/well
46 | CCCCNC(=O)CCCc1ccc(O)c(O)c1 [Compound 71] | – | – | – | 5.71 | 1.83 ng/well
47 | CC(=O)Oc1ccc(CC(N)=O)cc1OC(C)=O [Compound 75] | – | – | – | 5.53 | 2.03 ng/well
48 | CCCCNC(=O)Cc1ccc(OC(C)=O)c(OC(C)=O)c1 [Compound 77] | – | – | – | 5.26 | 1.86 ng/well
49 | CC(=O)Oc1ccc(CCCC(N)=O)cc1OC(C)=O [Compound 78] | – | – | – | 4.94 | 1.79 ng/well
50 | CCCCNC(=O)CCCc1ccc(OC(C)=O)c(OC(C)=O)c1 [Compound 80] | – | – | – | 5.74 | 1.95 ng/well
